Data reported in PubChem BioAssay (NCI).
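The compound was tested at five concentrations on cells cultured in 96-well plates, with a 48-hour exposure period. TGI: concentration producing complete growth inhibition.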

Assays:
Assay in all cases: growth of human tumour cells (NCI), 48 h
[1] = system: DU-145 prostate
[2] = system: MDA-MB-435
[3] = system: HCC-2998 colon
[4] = system: SN12C renal
[5] = system: OVCAR-5 ovarian
[6] = system: RPMI-8226 leukemia
[7] = system: CCRF-CEM leukemia
[8] = system: T-47D breast
[9] = system: A498 renal
[10] = system: HOP-62 NSCLC
[11] = system: HL-60(TB) leukemia
[12] = system: NCI-H460 lung
[13] = system: M14 melanoma
[14] = system: SR leukemia
[15] = system: HOP-92 NSCLC
[16] = system: SF-295 CNS
[17] = system: ACHN renal
[18] = system: KM12 colon
[19] = system: SK-OV-3 ovarian
[20] = system: CAKI-1 renal
[21] = system: MALME-3M melanoma
[22] = system: UACC-62 melanoma
[23] = system: UO-31 renal
[24] = system: NCI-H226 lung
[25] = system: UACC-257 melanoma
[26] = system: SK-MEL-2 melanoma
[27] = system: LOX IMVI melanoma
[28] = system: HCT-116 colon
[29] = system: NCI/ADR-RES ovarian
[30] = system: 786-0 renal
[31] = system: NCI-H522 lung
[32] = system: RXF 393 renal
[33] = system: SW-620 colon
[34] = system: TK-10 renal
[35] = system: SNB-75 CNS
[36] = system: A549 NSCLC
[37] = system: MOLT-4 leukemia
[38] = system: IGROV1 ovarian
[39] = system: PC-3 prostate
[40] = system: MDA-N
[41] = system: K-562 leukemia
[42] = system: SNB-19 CNS
[43] = system: OVCAR-4 ovarian
[44] = system: HT29 colon
[45] = system: OVCAR-8 ovarian
[46] = system: EKVX NSCLC
[47] = system: U251 CNS
[48] = system: SK-MEL-28 melanoma
[49] = system: NCI-H23 lung
[50] = system: MCF7 breast
[51] = system: MDA-MB-231 breast
[52] = system: COLO 205 colon
[53] = system: SK-MEL-5 melanoma
[54] = system: SF-268 CNS
[55] = system: BT-549 breast
[56] = system: OVCAR-3 ovarian
[57] = system: HS 578T breast
[58] = system: SF-539 CNS
[59] = system: HCT-15 colon

COc1ccc(C(=O)Nc2ccc3oc(-c4ccccc4)nc3c2)cc1
TGI [1]: > 100 µM
TGI [2]: > 100 µM
TGI [3]: > 100 µM
TGI [4]: > 100 µM
TGI [5]: > 100 µM
TGI [6]: > 100 µM
TGI [7]: > 100 µM
TGI [8]: > 100 µM
TGI [9]: > 100 µM
TGI [10]: > 100 µM
TGI [11]: > 100 µM
TGI [12]: > 100 µM
TGI [13]: > 100 µM
TGI [14]: > 100 µM
TGI [15]: > 100 µM
TGI [16]: > 100 µM
TGI [17]: > 100 µM
TGI [18]: > 100 µM
TGI [19]: > 100 µM
TGI [20]: > 100 µM
TGI [21]: > 100 µM
TGI [22]: > 100 µM
TGI [23]: 0.838 µM
TGI [24]: > 100 µM
TGI [25]: > 100 µM
TGI [26]: > 100 µM
TGI [27]: > 100 µM
TGI [28]: > 100 µM
TGI [29]: > 100 µM
TGI [30]: > 100 µM
TGI [31]: > 100 µM
TGI [32]: > 100 µM
TGI [33]: > 100 µM
TGI [34]: > 100 µM
TGI [35]: 89.8 µM
TGI [36]: > 100 µM
TGI [37]: > 100 µM
TGI [38]: > 100 µM
TGI [39]: > 100 µM
TGI [40]: > 100 µM
TGI [41]: > 100 µM
TGI [42]: > 100 µM
TGI [43]: > 100 µM
TGI [44]: > 100 µM
TGI [45]: 88.5 µM
TGI [46]: > 100 µM
TGI [47]: > 100 µM
TGI [48]: > 100 µM
TGI [49]: > 100 µM
TGI [50]: > 100 µM
TGI [51]: > 100 µM
TGI [52]: > 100 µM
TGI [53]: > 100 µM
TGI [54]: > 100 µM
TGI [55]: > 100 µM
TGI [56]: > 100 µM
TGI [57]: > 100 µM
TGI [58]: > 100 µM
TGI [59]: > 100 µM
